Where two headings read alike, the source gives them in different places.
Legend:
[1] = test system: macrophage and T cells dual tropic (89.6); experiment: P24 quantification (P24 EIA) in infected PBMCs, 89.6; type: cell-based, HIV-1; settings: PBMC; for concentrations of the viral P24 antigen, 89.6(+): (+) original concentration of compound maintained after washing; for concentrations of the viral P24 antigen, 89.6(-): (-) compound removed after washing
Procedure: (§1) PBMCs were treated with various concentrations of CAPE, MC and PEDMC provided in Example 2 and simultaneously infected with […] and macrophage and T cells dual tropic (89.6) HIV-1 isolates. The next day, the added compounds were removed by washing methods or maintained at the same concentration. Samples were divided into two groups and the upernatants of the culture medium were collected at the 3 and 7 days after infection, respectively. The use of P24 EIA Reagent Kit of Abbott Laboratory compares the concentrations of viral P24 antigen with or without the compounds tested.

[2] = test system: cells; experiment: Cellular activities in microculture tetrazolium (MTT) tests; type: cell-based
Procedure: The cellular activities were tested according to method as described in Alley M.C. et al, Cancer Res. 1988; 48(3):589-601. The principle of the method resides in that live cells can reduce MTT., i.e., 3-[4,5-dimethylthiazol-2-yl]-2,5-diphenyltetrazolium bromide)(tetrazolium salt) to formazan crystal through the dehydrogenase metabolism in Mitochondria. The crystal was dissolved in propanol and OD values were determined at 570 nm. The OD values can indicate the numbers of the live cells. The growth conditions of the cells were observed firstly. The cells were diluted to 2x10^4 cells/ml. 100µl sample taken by micropipet was placed in a 96-well plate. The plate was cultured for 24 hours as 37°C and 100µl of the compounds to be tested, which were prepared in medium, were added in each well. […] After culture for 4 hours, supernatant liquid was absorbed and 100 µl DMSO and 10µl /well was added. Each well was homogeneously mixed. The absorbance was determined at 570 nm.

[3] = test system: T cells-tropic (JRCSF); experiment: P24 quantification (P24 EIA) in infected PBMCs, JRCSF; type: cell-based, HIV-1; settings: PBMC; for concentrations of the viral P24 antigen, JRCSF(+): (+) original concentration of compound maintained after washing; for concentrations of the viral P24 antigen, JRCSF(-): (-) compound removed after washing
Procedure: as §1

[4] = test system: Peripheral Blood Mononuclear Cells (PBMC); settings: for The numbers of dead cells in 400 cells' count / % viability: 48 hours; for The numbers of dead cells in 400 cells' count: control 9 dead cells; for % viability: viable cells versus control (391);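 for all read-outs here: trypan blue dye exclusion, cells stained and counted from quadruplicate dishes, DMSO vehicle kept under 0.5%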
Procedure: Viability of the cells was assayed by the trypan blue dye exclusion method. […] The concentration of DMSO was adjusted to be less than 0.5%. Cells from quadruplicated dishes were washed once with Hank's Balanced Salt Solution (HBSS). According to the process, the floating dead cells will be separated from the live monolayer cells. Then the cells were stained with trypan blue and counted. The total number of viable cells in the control group was considered as 100% viability and the agent-treated cells were compared with the control group for the determination of % viability. The % viability of agent-treated cells was calculated from the total number of viable cells in the control group and in the agent-treated group.

[5] = test system: macrophage-tropic (NL-43); experiment: P24 quantification (P24 EIA) in infected PBMCs, NL-43; type: cell-based, HIV-1; settings: PBMC; for concentrations of the viral P24 antigen, NL43(+): (+) original concentration of compound maintained after washing; for concentrations of the viral P24 antigen, NL43(-): (-) compound removed after washing
Procedure: as §1

[6] = test system: various HIV isolates (NL-43, JRCSF or 89.6); experiment: P24 quantification, summary statements over all isolates; type: cell-based, HIV-1; settings: Figures 3-5; PBMC infected with NL-43, JRCSF or 89.6
Procedure: as §1

COc1ccc(C=CC(=O)OCCc2ccccc2)cc1OC [PEDMC, phenethyl dimethyl caffeate]
concentrations of the viral P24 antigen, 89.6(+) ([1]; 0.1 µM): 1000 unit | concentrations of the viral P24 antigen, 89.6(-) ([1]; 0.1 µM): 1000 unit | concentrations of the viral P24 antigen, 89.6(+) ([1]; 0.5 µM): 1000 unit | concentrations of the viral P24 antigen, 89.6(-) ([1]; 0.5 µM): 1000 unit | concentrations of the viral P24 antigen, 89.6(+) ([1]; 1 µM): 1000 unit | concentrations of the viral P24 antigen, 89.6(-) ([1]; 1 µM): 1000 unit | concentrations of the viral P24 antigen, 89.6(+) ([1]; 5 µM): 1000 unit | concentrations of the viral P24 antigen, 89.6(-) ([1]; 5 µM): 1000 unit | concentrations of the viral P24 antigen, 89.6(+) ([1]; 10 µM): 965.48 unit | concentrations of the viral P24 antigen, 89.6(-) ([1]; 10 µM): 932.67 unit | concentrations of the viral P24 antigen, 89.6(+) ([1]; 25 µM): 886.42 unit | concentrations of the viral P24 antigen, 89.6(-) ([1]; 25 µM): 927.4 unit | concentrations of the viral P24 antigen, 89.6(+) ([1]; 50 µM): 747.3 unit | concentrations of the viral P24 antigen, 89.6(-) ([1]; 50 µM): 681.42 unit | concentrations of the viral P24 antigen, 89.6(+) ([1]; 100 µM): 238.49 unit | concentrations of the viral P24 antigen, 89.6(-) ([1]; 100 µM): 647 unit | concentrations of the viral P24 antigen, 89.6(+) ([1]; 200 µM): 187.59 unit | concentrations of the viral P24 antigen, 89.6(-) ([1]; 200 µM): 539.82 unit | concentrations of the viral P24 antigen, 89.6(+) ([1]; 400 µM): 84.85 unit | concentrations of the viral P24 antigen, 89.6(-) ([1]; 400 µM): 494.91 unit | MTT 24h, cellular activities ([2]; 0.1 µM): 92.38 relative percentage | MTT 48h, cellular activities ([2]; 0.1 µM): 97.31 relative percentage | MTT 24h, cellular activities ([2]; 0.5 µM): 98.72 relative percentage | MTT 48h, cellular activities ([2]; 0.5 µM): 98.72 relative percentage | MTT 24h, cellular activities ([2]; 1 µM): 98.26 relative percentage | MTT 48h, cellular activities ([2]; 1 µM): 105.28 relative percentage | MTT 24h, cellular activities ([2]; 5 µM): 94.33 relative percentage | MTT 48h, cellular activities ([2]; 5 µM): 104.07 relative percentage | MTT 24h, cellular activities ([2]; 10 µM): 98.72 relative percentage | MTT 48h, cellular activities ([2]; 10 µM): 98.08 relative percentage | MTT 24h, cellular activities ([2]; 25 µM): 107.27 relative percentage | MTT 48h, cellular activities ([2]; 25 µM): 98.78 relative percentage | MTT 24h, cellular activities ([2]; 50 µM): 102.03 relative percentage | MTT 48h, cellular activities ([2]; 50 µM): 97.15 relative percentage | MTT 24h, cellular activities ([2]; 100 µM): 106.06 relative percentage | MTT 48h, cellular activities ([2]; 100 µM): 97.74 relative percentage | MTT 24h, cellular activities ([2]; 200 µM): 97.93 relative percentage | MTT 48h, cellular activities ([2]; 200 µM): 96.32 relative percentage | MTT 24h, cellular activities ([2]; 400 µM): 94.8 relative percentage | MTT 48h, cellular activities ([2]; 400 µM): 93.76 relative percentage | cellular activities in MTT tests (result in words) ([2]; Figures 1 and 2, 24 and 48 hours): no substantial effects | concentrations of the viral P24 antigen, JRCSF(+) ([3]; 0.1 µM): 1000 unit | concentrations of the viral P24 antigen, JRCSF(-) ([3]; 0.1 µM): 1000 unit | concentrations of the viral P24 antigen, JRCSF(+) ([3]; 0.5 µM): 1000 unit | concentrations of the viral P24 antigen, JRCSF(-) ([3]; 0.5 µM): 1000 unit | concentrations of the viral P24 antigen, JRCSF(+) ([3]; 1 µM): 1000 unit | concentrations of the viral P24 antigen, JRCSF(-) ([3]; 1 µM): 1000 unit | concentrations of the viral P24 antigen, JRCSF(+) ([3]; 5 µM): 1000 unit | concentrations of the viral P24 antigen, JRCSF(-) ([3]; 5 µM): 1000 unit | concentrations of the viral P24 antigen, JRCSF(+) ([3]; 10 µM): 1000 unit | concentrations of the viral P24 antigen, JRCSF(-) ([3]; 10 µM): 1000 unit | concentrations of the viral P24 antigen, JRCSF(+) ([3]; 25 µM): 1000 unit | concentrations of the viral P24 antigen, JRCSF(-) ([3]; 25 µM): 1000 unit | concentrations of the viral P24 antigen, JRCSF(+) ([3]; 50 µM): 1000 unit | concentrations of the viral P24 antigen, JRCSF(-) ([3]; 50 µM): 1000 unit | concentrations of the viral P24 antigen, JRCSF(+) ([3]; 100 µM): 892.45 unit | concentrations of the viral P24 antigen, JRCSF(-) ([3]; 100 µM): 1000 unit | concentrations of the viral P24 antigen, JRCSF(+) ([3]; 200 µM): 452.46 unit | concentrations of the viral P24 antigen, JRCSF(-) ([3]; 200 µM): 1000 unit | concentrations of the viral P24 antigen, JRCSF(+) ([3]; 400 µM): 348.96 unit | concentrations of the viral P24 antigen, JRCSF(-) ([3]; 400 µM): 869.4 unit | The numbers of dead cells in 400 cells' count ([4]; 0.1 µM): 11 | % viability ([4]; 0.1 µM): 389/391 (99.5%) | The numbers of dead cells in 400 cells' count ([4]; 0.5 µM): 10 | % viability ([4]; 0.5 µM): 390/391 (99.7%) | The numbers of dead cells in 400 cells' count ([4]; 1 µM): 7 | % viability ([4]; 1 µM): 393/391 (100.5%) | The numbers of dead cells in 400 cells' count ([4]; 5 µM): 11 | % viability ([4]; 5 µM): 389/391 (99.5%) | The numbers of dead cells in 400 cells' count ([4]; 10 µM): 9 | % viability ([4]; 10 µM): 391/391 (100%) | The numbers of dead cells in 400 cells' count ([4]; 25 µM): 8 | % viability ([4]; 25 µM): 392/391 (100.3%) | The numbers of dead cells in 400 cells' count ([4]; 50 µM): 10 | % viability ([4]; 50 µM): 390/391 (99.7%) | The numbers of dead cells in 400 cells' count ([4]; 100 µM): 10 | % viability ([4]; 100 µM): 390/391 (99.7%) | The numbers of dead cells in 400 cells' count ([4]; 200 µM): 7 | % viability ([4]; 200 µM): 393/391 (100.5%) | The numbers of dead cells in 400 cells' count ([4]; 400 µM): 6 | % viability ([4]; 400 µM): 394/391 (100.8%) | viabilities of PBMC under high-dose versus low-dose treatments (result in words) ([4]; high dose up to 400 µM compared with 0.1-10 µM): no substantial differences | concentrations of the viral P24 antigen, NL43(+) ([5]; 0.1 µM): 1000 unit | concentrations of the viral P24 antigen, NL43(-) ([5]; 0.1 µM): 1000 unit | concentrations of the viral P24 antigen, NL43(+) ([5]; 0.5 µM): 1000 unit | concentrations of the viral P24 antigen, NL43(-) ([5]; 0.5 µM): 1000 unit | concentrations of the viral P24 antigen, NL43(+) ([5]; 1 µM): 1000 unit | concentrations of the viral P24 antigen, NL43(-) ([5]; 1 µM): 1000 unit | concentrations of the viral P24 antigen, NL43(+) ([5]; 5 µM): 1000 unit | concentrations of the viral P24 antigen, NL43(-) ([5]; 5 µM): 1000 unit | concentrations of the viral P24 antigen, NL43(+) ([5]; 10 µM): 1000 unit | concentrations of the viral P24 antigen, NL43(-) ([5]; 10 µM): 1000 unit | concentrations of the viral P24 antigen, NL43(+) ([5]; 25 µM): 1000 unit | concentrations of the viral P24 antigen, NL43(-) ([5]; 25 µM): 1000 unit | concentrations of the viral P24 antigen, NL43(+) ([5]; 50 µM): 1000 unit | concentrations of the viral P24 antigen, NL43(-) ([5]; 50 µM): 1000 unit | concentrations of the viral P24 antigen, NL43(+) ([5]; 100 µM): 1000 unit | concentrations of the viral P24 antigen, NL43(-) ([5]; 100 µM): 1000 unit | concentrations of the viral P24 antigen, NL43(+) ([5]; 200 µM): 890.43 unit | concentrations of the viral P24 antigen, NL43(-) ([5]; 200 µM): 981.43 unit | concentrations of the viral P24 antigen, NL43(+) ([5]; 400 µM): 640.7 unit | concentrations of the viral P24 antigen, NL43(-) ([5]; 400 µM): 898.4 unit | viral replications (result in words) [6]: significantly inhibited viral replications
